The results in this text go back to ChEMBL document CHEMBL1155694, “Sesquiterpene alkaloids from Tripterygium hypoglaucum and Tripterygium wilfordii: a new class of potent anti-HIV agents” (J Nat Prod, 2000).

SMILES strings stand for the structures. Converted amounts (≈) assume the structure as drawn. The source made the active and inactive calls. No cut-off for these calls is given here. A value given as a limit tells only on which side of the number the result lay.

By IC50 is commonly meant the point on the concentration scale where inhibition reaches its midpoint. Read a low IC50 as greater potency in that assay. The EC50 is the concentration at which the effect is half-maximal.

Data set [1] has as its system H9. Nature of the data set: Cytotoxicity against human H9 cells. The class given is cell-based.
In data set [2] the test system is Human immunodeficiency virus 1. Nature of the data set: Antiviral activity against HIV1 in human H9 cells assessed as inhibition of viral replication. To be noted: for EC50: Human immunodeficiency virus 1, H9. The data set is classed as functional, organism-based.
The nature of data set [3]: Therapeutic index, ratio of IC50 for human H9 cells to EC50 for HIV1. Conditions: read-out: Ratio IC50/EC50. The data set is classed as cell-based.

As to `COC(=O)C[C@@H]1C(=O)CC[C@H](C)C(=O)O[C@@H]2[C@@H]3[C@@H](OC(C)=O)[C@@]45O[C@@]3(C)COC(=O)c3cnccc3[C@@H](C)[C@@](C)(O)C(=O)O[C@@H]([C@H](OC(C)=O)[C@H](OC(C)=O)[C@@]4(COC1=O)[C@@H]2OC(C)=O)[C@]5(C)O`, the IC50 in data set [1] is greater than 100 µg/mL. Moreover, in data set [2], the EC50 is less than 0.1 µg/mL. In addition, the selectivity ratio in data set [3] is greater than 1000.
In data set [1], `CC(=O)OC[C@]12[C@H](OC(C)=O)[C@H](OC(C)=O)[C@@H]3[C@@H](OC(=O)c4ccccc4)[C@@]14O[C@@]3(C)COC(=O)c1cccnc1C(C)C(C)C(=O)O[C@@H]([C@H](OC(C)=O)[C@@H]2OC(C)=O)[C@]4(C)O` (some centres undefined) registered an IC50 of 56.8 µg/mL (≈ 65.4 µM). Besides, the EC50 in data set [2] is 0.9 µg/mL (≈ 1.04 µM). Further, in data set [3], the selectivity ratio came out at 63.4.
`CC(=O)OC[C@]12[C@H](OC(C)=O)[C@H](OC(C)=O)[C@@H]3[C@@H](OC(C)=O)[C@@]14O[C@@]3(C)COC(=O)c1cccnc1C(C)C(C)C(=O)O[C@@H]([C@H](OC(C)=O)[C@@H]2OC(C)=O)[C@]4(C)O` (some centres undefined) [EUONYMINE] showed an IC50 in data set [1] of 22.8 µg/mL (≈ 28.3 µM). For the same molecule, the EC50 in data set [2] is 0.203 µg/mL (≈ 0.252 µM). In data set [3], the selectivity ratio turned out to be 113.
For `CC(=O)OC[C@]12[C@H](OC(C)=O)C(=O)[C@@H]3[C@@H](OC(C)=O)[C@@]14O[C@@]3(C)COC(=O)c1cccnc1C(C)C(C)C(=O)O[C@@H]([C@H](OC(C)=O)[C@@H]2OC(C)=O)[C@]4(C)O` (some centres undefined) [EVONINE] the same measures were 21.2 µg/mL (≈ 27.8 µM), 0.503 µg/mL (≈ 0.66 µM) and 42.1.
In the same order, the values of `CC(=O)OC[C@]12[C@H](OC(C)=O)[C@H](OC(C)=O)[C@@H]3[C@@H](OC(C)=O)[C@@]14O[C@@]3(C)COC(=O)c1cccnc1C(C)C(C)C(=O)O[C@@H]([C@H](OC(=O)c1ccccc1)[C@@H]2OC(C)=O)[C@@]4(C)O` (some centres undefined) [FORRESTINE] are greater than 100 µg/mL, 0.48 µg/mL (≈ 0.553 µM) and greater than 208.
`CC(=O)O[C@@H]1[C@@H]2[C@@H](OC(C)=O)[C@@]34O[C@@]2(C)COC(=O)c2cnccc2C(C)C(C)(O)C(=O)O[C@@H]([C@H](OC(C)=O)[C@H](OC(C)=O)[C@@]3(COC(=O)c2ccco2)[C@@H]1OC(C)=O)[C@]4(C)O` (some centres undefined) [HYPOGLAUNINE A] yielded an IC50 in data set [1] greater than 100 µg/mL. Further, the EC50 in data set [2] was determined as 0.13 µg/mL (≈ 0.149 µM). For the same molecule, the selectivity ratio in data set [3] was greater than 769.
For `CC(=O)OC[C@]12[C@H](OC(C)=O)[C@H](OC(C)=O)[C@@H]3[C@@H](OC(C)=O)[C@@]14O[C@@]3(C)COC(=O)c1cnccc1C(C)C(C)(O)C(=O)O[C@@H]([C@H](OC(=O)c1ccco1)[C@@H]2OC(C)=O)[C@]4(C)O` (some centres undefined) [HYPOGLAUNINE B] the same measures were greater than 100 µg/mL, 0.1 µg/mL (≈ 0.114 µM) and greater than 1000.
In data set [1], `CC(=O)O[C@@H]1[C@@H]2[C@@H](OC(C)=O)[C@@]34O[C@@]2(C)COC(=O)c2cnccc2C(C)C(C)C(=O)O[C@@H]([C@H](OC(C)=O)[C@H](OC(C)=O)[C@@]3(COC(=O)c2ccco2)[C@@H]1OC(C)=O)[C@]4(C)O` (some centres undefined) [HYPOGLAUNINE D] gave an IC50 of 22.2 µg/mL (≈ 25.9 µM). For the same molecule, in data set [2], the outcome was inactive.
`CC(=O)OC[C@]12[C@H](OC(C)=O)[C@H](OC(C)=O)[C@@H]3[C@@H](OC(=O)c4ccco4)[C@@]14O[C@@]3(C)COC(=O)c1cccnc1C(C)C(C)C(=O)O[C@@H]([C@H](OC(C)=O)[C@@H]2OC(C)=O)[C@]4(C)O` (some centres undefined) [HYPONINE A] displayed an IC50 in data set [1] of 27.7 µg/mL (≈ 32.3 µM). Besides, in data set [2], the EC50 worked out at 1 µg/mL (≈ 1.17 µM). Also, in data set [3], the selectivity ratio was determined as 27.7.
In the same order, the values of `CC(=O)O[C@@H]1[C@H](OC(C)=O)[C@@]2(COC(=O)c3ccco3)[C@H](OC(C)=O)C(=O)[C@@H]3[C@@H](OC(C)=O)[C@@]24O[C@@]3(C)COC(=O)c2cccnc2C(C)C(C)C(=O)O[C@@H]1[C@]4(C)O` (some centres undefined) [HYPONINE B] are greater than 100 µg/mL, 0.1 µg/mL (≈ 0.123 µM) and greater than 1000.
Regarding `CC(=O)OC[C@]12[C@H](OC(C)=O)[C@H](OC(C)=O)[C@@H]3[C@@H](OC(=O)c4ccccc4)[C@@]14O[C@@]3(C)COC(=O)c1cccnc1C(C)C(C)C(=O)O[C@@H]([C@H](OC(=O)c1cccnc1)[C@@H]2OC(C)=O)[C@]4(C)O` (some centres undefined) [HYPONINE D], in data set [1], the IC50 was found to be 20.2 µg/mL (≈ 21.7 µM). For the same molecule, the result in data set [2] was inactive.
In turn, `CC(=O)OC[C@]12[C@H](OC(C)=O)[C@H](OC(=O)c3cccnc3)[C@@H]3[C@@H](OC(=O)c4ccco4)[C@@]14O[C@@]3(C)COC(=O)c1cccnc1C(C)C(C)C(=O)O[C@@H]([C@H](OC(C)=O)[C@@H]2OC(C)=O)[C@]4(C)O` (some centres undefined) [HYPONINE E] had an IC50 in data set [1] of 1.95 µg/mL (≈ 2.12 µM). The EC50 in data set [2] stood at 0.17 µg/mL (≈ 0.185 µM). The selectivity ratio in data set [3] was 11.3.
Consider `CC(=O)OC[C@]12[C@H](OC(C)=O)[C@H](OC(C)=O)[C@@H]3[C@@H](OC(C)=O)[C@@]14O[C@@]3(C)COC(=O)c1cccnc1C(C)C(C)C(=O)O[C@@H]([C@H](OC(=O)c1ccco1)[C@@H]2OC(C)=O)[C@]4(C)O` (some centres undefined) [HYPONINE F], for which, in data set [1], the IC50 was greater than 100 µg/mL. Also, in data set [2], the EC50 was found to be 35.2 µg/mL (≈ 41 µM). Moreover, in data set [3], the selectivity ratio is greater than 2.84.
For `CC(=O)OC[C@]12[C@H](OC(C)=O)[C@H](OC(C)=O)[C@@H]3[C@@H](O)[C@@]14O[C@@]3(C)COC(=O)c1cccnc1C(C)C(C)C(=O)O[C@@H]([C@H](OC(C)=O)[C@@H]2OC(C)=O)[C@]4(C)O` (some centres undefined) [NEOEUONYMINE], in data set [1], the IC50 is greater than 100 µg/mL. Further, the EC50 in data set [2] was 0.884 µg/mL (≈ 1.16 µM). In data set [3], the selectivity ratio is greater than 113.
Molecule `COC(=O)C[C@@H]1C(=O)CCC(C)C(=O)O[C@@H]2[C@@H]3[C@@H](OC(C)=O)[C@@]45O[C@@]3(C)COC(=O)c3cccnc3C(C)C(C)C(=O)O[C@@H]([C@H](OC(C)=O)[C@H](OC(C)=O)[C@@]4(COC1=O)[C@@H]2OC(C)=O)[C@]5(C)O` (some centres undefined) [TRIPTONINE A] gave an IC50 in data set [1] greater than 100 µg/mL. Further, the EC50 in data set [2] worked out at 2.54 µg/mL (≈ 2.69 µM). In data set [3], the selectivity ratio is greater than 39.4.
In the same order, the values of `CC(=O)OC[C@]12[C@H](OC(C)=O)[C@H](OC(C)=O)[C@@H]3[C@@H](OC(C)=O)[C@@]14O[C@@]3(C)COC(=O)c1cccnc1CCC(C)(O)C(=O)O[C@@H]([C@H](OC(=O)c1ccccc1)[C@@H]2OC(C)=O)[C@]4(C)O` (some centres undefined) [WILFORDINE] are 20 µg/mL (≈ 22.6 µM), less than 0.1 µg/mL and greater than 220.
The molecule `CC(=O)OC[C@]12[C@H](OC(C)=O)[C@H](OC(C)=O)[C@@H]3[C@@H](OC(C)=O)[C@@]14O[C@@]3(C)COC(=O)c1cccnc1CCC(C)C(=O)O[C@@H]([C@H](OC(=O)c1ccco1)[C@@H]2OC(C)=O)[C@]4(C)O` (some centres undefined) [WILFORGINE] came in with an IC50 in data set [1] greater than 100 µg/mL. Besides, the outcome in data set [2] was inactive.
For the molecule `CC(=O)OC[C@]12[C@H](OC(C)=O)[C@H](OC(C)=O)[C@@H]3[C@@H](OC(C)=O)[C@@]14O[C@@]3(C)COC(=O)c1cccnc1CCC(C)C(=O)O[C@@H]([C@H](OC(=O)c1ccccc1)[C@@H]2OC(C)=O)[C@]4(C)O` (some centres undefined) [WILFORINE], the IC50 in data set [1] is greater than 100 µg/mL. Further, the outcome in data set [2] was inactive.
For the molecule `CC(=O)OC[C@]12[C@H](OC(C)=O)[C@H](OC(C)=O)[C@@H]3[C@@H](OC(C)=O)[C@@]14O[C@@]3(C)COC(=O)c1cccnc1CCC(C)(O)C(=O)O[C@@H]([C@H](OC(=O)c1ccco1)[C@@H]2OC(C)=O)[C@]4(C)O` (some centres undefined) [WILFORTRINE], the IC50 in data set [1] is greater than 100 µg/mL. Besides, the EC50 in data set [2] is less than 0.1 µg/mL. In data set [3], the selectivity ratio is greater than 1000.
As to `Cc1cn([C@H]2C[C@H](N=[N+]=[N-])[C@@H](CO)O2)c(=O)[nH]c1=O` [ZIDOVUDINE], the EC50 in data set [2] is 0.012 µg/mL (≈ 0.0449 µM).
